In patent US8686130B2, “Artificial fluorescent bases” (Riken, priority 2009, dated 2014):
“And” between values parts separate entries of the source, which are not always exact repeats. Equal entries are not always repeated. Where two headings read alike, the source gives them in different places.

Key:
[1] = Fluorescence characteristics of base analog nucleosides; assay type: physicochemical; details: for Fluorescence emitted by excitation at a wavelength of 350 nm or more: excitation 350 nm or more; for Absorption maximum / Fluorescence intensity (ε × φ) / Fluorescence wavelength / Molar absoption coefficient ε / Stokes shift / Excitation wavelength: deoxyribonucleoside derivative; for Quantum yield (φ): quinine sulfate as a standard
Experimental: Reagents and solvents were purchased from typical suppliers and were used without further purification. ^1H-NMR (300 MHz, 270 MHz) and ^31P-NMR (121 MHz) spectra were recorded on a BRUKER AV300 or JEOL nuclear magnetic resonance spectrometer. Synthesized nucleoside derivatives and nucleoside 5′-triphosphate were purified with a Gilson HPLC system using a fractionation column (Waters Microbond Sphere, C18, 19 mm×150 mm, flow rate: 10 mL/min) and a fractionation column (PEGASIL C8, Senshu Scientific Co., Ltd., 10 mm×150 mm, flow rate: 6 mL/min), respectively. Electrospray-ionization mass spectra (ESI-MS) were recorded on a Waters ZMD 4000 mass system equipped with a Waters 2690 LC system. Fluorescence spectra were measured with a JASCO FP6500 fluorescence spectrometer, and fluorescence quantum yields were determined using quinine sulfate as a standard.
Fluorescence characteristics of nucleosides including an unnatural base, ss, sss, Dss, Dsss, Dsas, Dsav, or Dvas, were evaluated. For comparison, fluorescence characteristics of nucleosides including known unnatural bases, 2-aminopurine, s (2-amino-6-(2-thienyl)purin-9-yl group), v (2-amino-6-(2-thiazolyl)purin-9-yl group), and Ds (7-(2-thienyl)imidazo[4,5-b]pyridin-3-yl group) were also evaluated.

[2] = cited from earlier work
T7 RNA polymerase = T7 RNA polymerase (Escherichia phage T7, UniProt P00573); details: 0.05 to 0.1 mM substrate, 1 mM natural NTPs, 37° C., 3 hr
Experimental: Templates for transcription by the T7 polymerase were prepared by heating chemically synthesized two DNA strands (10 μM coding strand (SEQ ID NO: 4) of 35-mer and non-coding strand (SEQ ID NO: 5) of 21-mer) at 95° C. in a 10 mM Tris-HCl buffer (pH 7.6) containing 10 mM NaCl and then slowly cooled to 4° C. for annealing. The transcription by the T7 polymerase was performed by using 2 μM of the template and 50 units of a T7 RNA polymerase (Takara Shuzo Co., Ltd., Kyoto) in a 40 mM Tris-HCl buffer (pH 8.0, 20 μL) containing 24 mM MgCl2, 2 mM spermidine, 5 mM DTT, and 0.01% Triton X-100 in the presence of 1 mM natural NTPs, 0.05 to 0.1 mM ssTP or DssTP (ribonucleoside 5′-triphosphate of ss or Dss). After the reaction at 37° C. for 3 hr, the reaction was terminated by addition of a dye solution (20 μL) containing 10 M urea and 0.05% BPB. […] The transcription product was protected by placing the gel on a TLC containing a fluorescent indicator, irradiating the gel with UV of 254 nm, and photographing the image with a Polaroid camera utilizing the phenomenon that nucleic acid absorbs the UV and thereby the band of the transcription product is detected as an image. The transcript including the unnatural fluorescent base ss or Dss was detected with a bio-imaging analyzer, LAS 4000 (Fujifilm Corporation) utilizing epi-UV LED.

Klenow fragment (exo+) = Klenow fragment (exo+) (Escherichia coli, UniProt P00582); details: 0.5 μM dDssTP with 10 μM natural base substrate, 37° C.
Experimental: Template strand DNA (SEQ ID NO: 1,35-mer, 400 nM) dissolved in 2× reaction buffer (20 mM tris-HCl, pH 7.5, 14 mM MgCl2, 0.2 mM DTT) and a primer labeled with ^32P at the 5′-end (SEQ ID NO: 2,23-mer, 400 nM) were heated at 95° C. for 3 min and then slowly cooled for annealing to form a double strand. To each 5 μL of the resulting double-stranded DNA solution, 2.5 μL of a 4×dNTP solution mixture (40 μM dTTP, 40 μM dCTP, 0 to 40 μM dDssTP) and 2.5 μL (1 unit) of Klenow fragment (Takara Shuzo Co., Ltd.) diluted with water were added to start the enzyme reaction at 37° C. After incubation at 37° C., the reaction was terminated by addition of a TBE solution containing 10 μL of 10 M urea and heating at 75° C. for 3 min. A part of the reaction solution was subjected to electrophoresis with 15% polyacrylamide-7 M urea gel and analyzed with a bio-imaging analyzer (FLA7000, Fujifilm Corporation).

[3] = tested on: mRNA of firefly luciferase; assay: Suppression of firefly luciferase reporter gene expression by shRNA in HeLa cells (dual luciferase assay); assay type: cell-based; details: different shRNA concentrations, read-out: IC50 for suppressing expression of firefly luciferase gene
Experimental: In this Example, various shRNAs prepared by T7 transcription and gel purification were introduced into HeLa cells by lipofection together with a plasmid encoding a target reporter gene (firefly luciferase) and a control plasmid endocing a Renilla luciferase gene. Suppression of the target gene expression was investigated based on the luminescence of luciferase. […]
HeLa cells were seeded at 1.5×10^4 cells (100 μL of culture medium)/well in a 96-well plate and were cultured in an MEM medium containing 10% fetal bovine serum but not containing antibiotics for 24 hr. […] After culturing for 22 hr, the intensity of luminescence emitted from each of the two types of luciferase proteins was determined.
The effect of suppressing expression of the firefly luciferase protein, which is the target of shRNA, was analyzed by the intensities of luminescence emitted from the firefly luciferase and Renilla luciferase using dual luciferase reporter assay reagent (Promega Corporation). […] The resulting solution was mixed with 100 μL of LAR II reagent, and the luminescence of the firefly luciferase was detected (exposure time: 120 sec) with LAS 4000 (Fujifilm Corporation), then, 100 μL of Stop & Glo reagent was added thereto, and the luminescence of the Renilla luciferase was detected (exposure time: 200 sec). […]

[4] = from Ward et al., J. Biol. Chem. 1969

Chain of T7 RNA polymerase (P00573 whole entry, the tested form may be a part): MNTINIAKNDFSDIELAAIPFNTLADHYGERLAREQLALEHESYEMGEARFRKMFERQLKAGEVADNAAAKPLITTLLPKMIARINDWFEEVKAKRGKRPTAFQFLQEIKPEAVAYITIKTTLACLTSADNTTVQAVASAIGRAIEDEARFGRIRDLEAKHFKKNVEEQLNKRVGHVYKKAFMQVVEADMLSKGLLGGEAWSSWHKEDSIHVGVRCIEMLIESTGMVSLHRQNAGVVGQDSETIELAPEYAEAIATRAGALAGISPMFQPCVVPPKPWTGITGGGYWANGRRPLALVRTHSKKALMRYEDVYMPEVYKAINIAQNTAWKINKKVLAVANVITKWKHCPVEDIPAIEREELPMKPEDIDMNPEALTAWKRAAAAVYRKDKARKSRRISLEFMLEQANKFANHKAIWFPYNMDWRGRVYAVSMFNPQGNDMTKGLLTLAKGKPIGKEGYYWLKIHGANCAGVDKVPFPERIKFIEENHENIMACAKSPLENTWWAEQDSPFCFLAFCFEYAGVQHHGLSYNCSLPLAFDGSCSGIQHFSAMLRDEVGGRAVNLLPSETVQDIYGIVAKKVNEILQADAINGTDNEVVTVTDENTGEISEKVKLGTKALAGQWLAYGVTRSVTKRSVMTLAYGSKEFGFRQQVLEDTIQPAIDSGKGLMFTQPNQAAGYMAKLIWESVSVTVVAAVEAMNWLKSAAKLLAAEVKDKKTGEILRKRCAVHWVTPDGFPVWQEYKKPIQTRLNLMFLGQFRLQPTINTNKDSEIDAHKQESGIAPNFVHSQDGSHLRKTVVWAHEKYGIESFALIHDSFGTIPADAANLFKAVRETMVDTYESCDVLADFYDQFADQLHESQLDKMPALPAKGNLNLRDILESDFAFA
Chain of Klenow fragment (exo+) (P00582 324-928): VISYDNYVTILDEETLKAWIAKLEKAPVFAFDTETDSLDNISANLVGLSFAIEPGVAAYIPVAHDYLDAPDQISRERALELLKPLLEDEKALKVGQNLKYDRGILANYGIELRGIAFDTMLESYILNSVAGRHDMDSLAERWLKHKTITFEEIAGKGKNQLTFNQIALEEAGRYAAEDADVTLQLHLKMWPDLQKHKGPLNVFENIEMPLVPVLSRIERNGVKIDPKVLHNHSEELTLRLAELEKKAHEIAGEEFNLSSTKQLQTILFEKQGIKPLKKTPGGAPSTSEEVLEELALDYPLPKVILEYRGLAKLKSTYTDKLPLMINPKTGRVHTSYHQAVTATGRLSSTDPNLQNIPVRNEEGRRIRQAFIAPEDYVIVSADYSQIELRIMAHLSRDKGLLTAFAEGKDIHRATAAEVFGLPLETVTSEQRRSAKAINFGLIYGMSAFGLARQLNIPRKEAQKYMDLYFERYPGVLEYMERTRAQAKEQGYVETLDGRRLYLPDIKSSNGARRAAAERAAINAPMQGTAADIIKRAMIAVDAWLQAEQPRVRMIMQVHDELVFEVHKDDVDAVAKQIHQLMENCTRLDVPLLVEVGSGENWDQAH

Absorption maximum [1] [nm] | Fluorescence intensity (ε × φ) [1] | Fluorescence wavelength [1] [nm] | Molar absoption coefficient ε [1] [M⁻¹ cm⁻¹] | Stokes shift [1] [nm] | Quantum yield (φ) [1] | Excitation wavelength [1] | Compound | other results
– | – | – | – | – | – | – | Nc1ncc2[nH]cnc2n1 [2-aminopurine] | Fluorescence emitted by excitation at a wavelength of 350 nm or more [1]: considerably low; Absorption maximum [2, 4]: 304 nm; Excitation wavelength [2, 4]: about 300 nm; Fluorescence intensity (ε × φ) [2, 4]: 4828; Fluorescence wavelength [2, 4]: 370 nm; Molar absoption coefficient ε [2, 4]: 7100 M⁻¹ cm⁻¹; Quantum yield (φ) [2, 4]: 0.68; Stokes shift [2, 4]: 67 nm; Excitation wavelength ([2]; from Ward et al., J. Biol. Chem. 1969, listed as 2-aminoprine): 303 nm
– | – | – | – | – | – | – | O=P(O)(O)OP(=O)(O)OP(=O)(O)OC[C@H]1O[C@@H](n2cnc3c(-c4ccc(-c5cccs5)s4)ccnc32)[C@H](O)[C@@H]1O [DssTP, 7-(2,2′-bithien-5-yl)-3-(β-D-ribofuranosyl)imidazo[4,5-b]pyridine 5′-triphosphate] | Incorporation into RNA opposite Pa in template DNA (T7 RNA polymerase): selectively incorporated into RNA depending on Pa
313 | 4180 | 366 | 22000 | 54 | 0.19 | – | OC[C@H]1O[C@@H](n2cnc3c(-c4cccs4)ccnc32)C[C@@H]1O [dDs, reference compound] | Fluorescence emitted by excitation at a wavelength of 350 nm or more [1]: does not emit light
365 | 2795 | 451 | 21500 | 84 | 0.13 | 367 nm | OC[C@H]1O[C@@H](n2ccc3c(-c4ccc(-c5cccs5)s4)ccnc32)C[C@@H]1O [dDsas, 1-[2-deoxy-β-D-ribofuranosyl]-4-(2,2′-bithien-5-yl)-pyrrolo[2,3-b]pyridine] | –
365 | 2795 | 445 | 21500 | 77 | 0.13 | 368 nm | OC[C@H]1O[C@@H](n2ccc3c(-c4ccc(-c5nccs5)s4)ccnc32)C[C@@H]1O [dDsav, 1-[2-deoxy-β-D-ribofuranosyl]-4-[2-(2-thiazolyl)thien-5-yl]pyrrolo[2,3-b]pyridine] | –
370 | 10400 | 442 | 32500 | 71 | 0.32 | 371 nm | OC[C@H]1O[C@@H](n2cnc3c(-c4ccc(-c5cccs5)s4)ccnc32)C[C@@H]1O [dDss, 7-(2,2′-bithien-5-yl)-3-(2-deoxy-β-D-ribofuranosyl)imidazo[4,5-b]pyridine] | –
– | – | – | – | – | – | – | O=P(O)(O)OP(=O)(O)OP(=O)(O)OC[C@H]1O[C@@H](n2cnc3c(-c4ccc(-c5cccs5)s4)ccnc32)C[C@@H]1O [dDssTP, 7-(2,2′-bithien-5-yl)-3-(2-deoxy-β-D-ribofuranosyl)imidazo[4,5-b]pyridine 5′-triphosphate] | Incorporation into DNA opposite Pa in template DNA (Klenow fragment (exo+)): selectively incorporated into a complementary DNA strand
403 | 3132 | 489 | 34800 | 82 | 0.09 | 407 nm | OC[C@H]1O[C@@H](n2cnc3c(-c4ccc(-c5ccc(-c6cccs6)s5)s4)ccnc32)C[C@@H]1O [dDsss, 7-(2,2′,5′,2″-terthien-5-yl)-3-(2-deoxy-β-D-ribofuranosyl)imidazo[4,5-b]pyridine] | –
377 | 3780 | 449 | 27000 | 71 | 0.14 | 378 nm | OC[C@H]1O[C@@H](n2ccc3c(-c4ncc(-c5cccs5)s4)ccnc32)C[C@@H]1O [dDvas, 1-[2-deoxy-β-D-ribofuranosyl]-4-[5-(2-thienyl)thiazol-2-yl]pyrrolo[2,3-b]pyridine] | –
353 | 2576 | 429 | 11200 | 78 | 0.23 | 350 nm and 351 nm | c1csc(-c2ccnc3nc[nH]c23)c1 [ds, 7-(2-thienyl)-imidazo[4,5-b]pyridine, reference compound] | Fluorescence by excitation at a wavelength of 350 nm or more ([2]; background art): substantially invisible to the naked eye
414 | 4928 | 508 | 44800 | 89 | 0.11 | 419 nm | Nc1nc(-c2ccc(-c3ccc(-c4cccs4)s3)s2)c2ncn([C@H]3C[C@H](O)[C@@H](CO)O3)c2n1 [dsss, 2-amino-6-(2,2′,5′,2″-terthien-5-yl)-9-(2-deoxy-β-D-ribofuranosyl)purine] | –
– | – | – | – | – | – | – | Nc1nc(-c2cccs2)c2[nH]cnc2n1 [s, 2-amino-6-thienylpurine] | Fluorescence wavelength ([2]; background art): 435 nm; Maximum excitation wavelength ([2]; background art): 348 nm
– | – | – | – | – | – | – | Nc1nc(-c2ccc(-c3cccs3)s2)c2ncn([C@@H]3O[C@H](COP(=O)(O)OP(=O)(O)OP(=O)(O)O)[C@@H](O)[C@H]3O)c2n1 [ssTP] | Incorporation into RNA opposite Pa in template DNA (T7 RNA polymerase): selectively incorporated into RNA depending on Pa
– | – | – | – | – | – | – | shRNAF1 WT: 52-mer short hairpin RNA (SEQ ID NO: 10) targeting mRNA of firefly luciferase, A36 unsubstituted (GGAGCCUUCAGGAUUACAAGAUUCAAGAGUCUUGUAAUCCUGAAGGCUCCUU; short hairpin RNA, synthesis route not given here, further chemistry not given here) | IC50 [3]: ~20 pM

Compound | Absorption maximum [1] [nm] | Fluorescence intensity (ε × φ) [1] | Fluorescence wavelength [1] [nm] | Molar absoption coefficient ε [1] [M⁻¹ cm⁻¹] | Stokes shift [1] [nm] | Quantum yield (φ) [1] | Excitation wavelength [1] | other results
Nc1nc(-c2nccs2)c2ncn([C@H]3C[C@H](O)[C@@H](CO)O3)c2n1 [dv, reference compound] | 363 | 3444 | 461 | 8400 | 104 | 0.41 | 363 nm and 357 nm | Stability of nucleoside derivative under basic conditions: low stability
